Reference: patent publication US20050209310A1, “Methods for modulating tumor growth and metastasis” (priority 2000, published 2005)

Legend:
[1] = tested on: M5076 murine fibrosarcoma; assay: In vivo antitumor testing, sc M5076 murine fibrosarcoma; conditions: for complete response (disappearance of tumors): CA1P + carboplatin vs either agent alone (FIG. 11); for minimum effective dose required for synergistic enhancement: in combination with carboplatin (FIG. 10)
Experimental: (§1) The following protocols are provided to facilitate the practice of Examples I and II. • Drug administration: For administration to rodents, CA4P was dissolved in normal saline (0.9% NaCl). Paclitaxel was dissolved in a 50/50 mixture of ethanol and Cremophor® and stored at 4° C.; final dilution of paclitaxel was obtained immediately before drug administration with NaCl 0.9%. Fresh preparation of paclitaxel was employed to avoid precipitation. CPT-11 was dissolved in normal saline. • The volume of all compounds injected was 0.01 ml/g of mice, and 0.005 ml/g of rats. • In Vivo Antitumor Testing: The following tumor models were used: A2780 human ovarian carcinoma, the murine fibrosarcoma M5076 and M5076/ddp (resistant to cisplatin and carboplatin).
(§2) The human tumors were maintained in Balb/c nu/nu nude mice. M5076 and M5076ddp were maintained in C57BL/6 mice. Tumors were propagated as subcutaneous transplants in the appropriate mouse strain using tumor fragments obtained from donor mice.
(§3) The following tumors were passaged in the indicated host strain of mouse: murine M5076 fibrosarcoma (M5076) in C57B1/6 mice; human A2780 ovarian carcinomas in nude mice. Tumor passage occurred biweekly for murine tumors and approximately every two to three weeks for the human tumor line. With regard to efficacy testing, M5076 and M507 6ddp tumors were implanted in (C57B1/6×DBA/2)F1 hybrid mice, and human tumors were implanted in nude mice. All tumor implants for efficacy testing were subcutaneous (sc).
The required numbers of animals needed to detect a meaningful response were pooled at the start of the experiment and each was given a subcutaneous implant of a tumor fragment (˜50 mg) with a 13-gauge trocar. For treatment of early-stage tumors, the animals were again pooled before distribution to the various treatment and control groups. For treatment of animals with advanced-stage disease, tumors were allowed to grow to the predetermined size window (tumors outside the range were excluded) and animals were evenly distributed to various treatment and control groups. Treatment of each animal was based on individual body weight. Treated animals were checked daily for treatment related toxicity/mortality. Each group of animals was weighed before the initiation of treatment (Wt1) and then again following the last treatment dose (Wt2). The difference in body weight (Wt2−Wt1) provides a measure of treatment-related toxicity.
Tumor response was determined by measurement of tumors with a caliper twice a week, until the tumors reach a predetermined “target” size of 1 gm. Tumor weights (mg) were estimated from the formula: Tumor weight=(length×width2)÷2 Antitumor activity was evaluated at the maximum tolerated dose (MTD) which is defined as the dose level immediately below which excessive toxicity (i.e. more than one death) occurred. […] When death occurs, the day of death was recorded.
Tumor response end-point was expressed in terms of tumor growth delay (T−C value), defined as the difference in time (days) required for the treated tumors (T) to reach a predetermined target size compared to those of the control group (C).
To estimate tumor cell kill, the tumor volume doubling time was first calculated with the formula: TVDT=Median time (days) for control tumors to reach target size−Median time (days) for control tumors to reach half the target size and, Log cell kill=T−C÷(3.32×TVDT).
Statistical evaluations of data were performed using Gehan's generalized Wilcoxon test.

[2] = tested on: ES2 human clear cell ovarian carcinoma; assay: Multi-drug resistant ES2 ovarian carcinoma model, tumor size and survival; format: in vivo, Fox Chase CB-17 SCID mice
Experimental: The multi-drug resistant ES2 human clear cell ovarian carcinoma was established by subcutaneous injection of cultured ES2 cells in Fox Chase CB-17 SCID mice. In one experiment, tumor-bearing mice were administered CA4P at a dose of 100 mg/kg (Group II), saline carrier only (Group I), an intraperitoneal (i.p.) injection of paclitaxel at a dose of 9 mg/kg, followed 30 minutes later by an infusion of carboplatin at a dose of 30 mg/kg […], or CA4P (100 mg/kg) followed 24 hours later by paclitaxel and carboplatin as in Group II (Group IV). Treatment with anticancer agents was performed once a week for 4 weeks (i.e. on Day 11, 19, 26, and 33). Tumors in each treatment group (n=2) were measured every 4 days by width and length. Tumor size (i.e. volume) was calculated according to the following formula: Length×Width^2×0.4.
In a second experiment, tumor-bearing mice were administered CA1P and/or carboplatin and paclitaxel in the same treatment regime as the first experiment.

[3] = tested on: A2780 human ovarian carcinoma; assay: In vivo antitumor testing, A2780 human ovarian carcinoma xenograft
Experimental: as §1, §2, §3
The required numbers of animals needed to detect a meaningful response were pooled at the start of the experiment and each was given a subcutaneous implant of a tumor fragment (˜50 mg) with a 13-gauge trocar. For treatment of early-stage tumors, the animals were again pooled before distribution to the various treatment and control groups. For treatment of animals with advanced-stage disease, tumors were allowed to grow to the predetermined size window (tumors outside the range were excluded) and animals were evenly distributed to various treatment and control groups. […]
Tumor response was determined by measurement of tumors with a caliper twice a week, until the tumors reach a predetermined “target” size of 1 gm. Tumor weights (mg) were estimated from the formula: Tumor weight=(length×width2)÷2 Antitumor activity was evaluated at the maximum tolerated dose (MTD) which is defined as the dose level immediately below which excessive toxicity (i.e. more than one death) occurred. […] When death occurs, the day of death was recorded. […]
To estimate tumor cell kill, the tumor volume doubling time was first calculated with the formula: TVDT=Median time (days) for control tumors to reach target size−Median time (days) for control tumors to reach half the target size and, Log cell kill=T−C÷(3.32×TVDT). […]

[4] = tested on: N87 human gastric carcinoma; assay: Single agent antitumor activity, N87 xenograft model; conditions: in vivo
[5] = tested on: N87 gastric cancer tumor xenografts; assay: Tumor perfusion studies of CA1P, N87 xenografts
[6] = tested on: A2780 human ovarian tumor xenografts; assay: Tumor perfusion studies of CA1P, A2780 xenografts
[7] = Hematological analysis of whole blood, Phase I trial of CA4P; format: in vivo, human
Experimental: Hematological analysis was performed on whole blood obtained from patients participating in a Phase I trial of CA4P (see Rustin et al., J. Clin. Oncol. (2003)). All patients had histologically confirmed tumors and were either not amenable to standard curative therapy or were refractory to conventional therapy. Blood work was obtained from each patient 1 minute prior to treatment, every 15 minutes for the first hour post-treatment, and at 1.5, 2, 4, 8, 12 and 24 hours following infusion with the first dose of CA4P (52-114 mg/m^2). Art-recognized hematology methods were used in the analysis.
All full or differential blood cell counts were performed using a hematology flow cytometer (Technicon H2, Bayer Inc.). Total white blood cell (“WBC” or leukocyte) and red blood cell (“RBC” or erythrocyte) counts were established using direct laser flow cytometry. A differential count for leukocyte cells of myeloid origin (e.g. eosinophils, neutrophils, monocytes) was obtained by fluorescent flow cytometry of cells stained for myeloperoxidase. Unstained cells were assumed to be lymphocytes and basophils. Lymphocyte counts were obtained by subtracting those cells that stained […] for a second, basophil-specific cell stain. Mean Corpuscular Volume (MCV) and Mean Corpuscular Haemoglobin (MCH) were also obtained by laser flow cytometry. The haematocrit (Hct) was calculated from the RBC count and the MCV. The coagulant status of each blood sample was determined by measuring fibrinogen content, prothrombin time, and kaolin partial thromboplastin time (when kaolin is used instead of micronised silica as the activator).
Cell counts were averaged from nineteen patients treated with a range of CA4P doses (52 to 114 mg/m^2). The results of the complete hematological analysis obtained at 4 and 24 hours post-treatment are presented in FIG. 18 as a percentage of the corresponding pretreatment value. […] The increase in white blood cells occurred despite a significant decrease in lymphocyte count (i.e. T and B-lymphocytes). […] The more than 2-fold increase in neutrophils and more than 20% decrease in lymphocytes was transient however, as white blood cell counts returned to normal levels within 24 hours of treatment.

[8] = tested on: M5076DDP murine fibrosarcoma; assay: In vivo antitumor testing, sc M5076DDP murine fibrosarcoma (resistant to cisplatin and carboplatin); design: species or system mice
Experimental: Fresh preparation of paclitaxel was employed to avoid precipitation.
M5076 and M5076ddp were maintained in C57BL/6 mice.
All tumor implants for efficacy testing were subcutaneous (sc).
The MTD was frequently equivalent to OD. When death occurs, the day of death was recorded.
M507 6DDP is a murine fibrosarcoma that has developed resistance to cisplatin and cross-resistance to carboplatin. The in vivo antitumor activity of CA4P or CA1P in combination with each of these platinum coordination compounds and CPT-11 were evaluated in M5076DDP tumor bearing mice.

[9] = tested on: sc A2780 human ovarian carcinoma; assay: Tumor perfusion, Evans blue dye uptake assay, mice; format: in vivo; conditions: iv, optimal dose, Evans blue injected an hour later (FIG. 5A)
Experimental: (§4) The effects of CA4P disodium salt on tumor perfusion were also studied using the Evans blue dye uptake assay. Mice or rats bearing sc A2780 human ovarian carcinoma were administered an iv dose of CA4P disodium salt. An hour later, Evans blue was injected iv. The amount of Evans blue accumulated in the tumor is proportional to the blood flow through the tumor.

[10] = tested on: sc A2780 human ovarian carcinoma; assay: Tumor perfusion, Evans blue dye uptake assay, rats; format: in vivo; conditions: iv, optimal dose, Evans blue injected an hour later (FIG. 5B)
Experimental: as §4

[11] = 4 hours following treatment, CA4P 52 to 114 mg/m^2, nineteen patients

COc1cc(/C=C\c2ccc(OC)c(OP(=O)(O)O)c2OP(=O)(O)O)cc(OC)c1OC [CA1P, combretastatin A-1 diphosphate]
complete response (disappearance of tumors) [1]: not observed | minimum effective dose required for synergistic enhancement [1]: 4 to 8 mg/kg | control of tumor growth ([2]; second experiment: CA1P and/or carboplatin and paclitaxel, same regime (FIG. 15)): considerable anti-tumor growth delay | log cell kill (LCK) ([3]; CA1P at MTD 9 mg/kg, ip, q1dx8): 2.1 LCK | maximum tolerated dose (MTD) ([3]; CA1P, ip, q1dx8): 9 mg/kg | single agent activity [4]: improved single agent activity | inhibition of tumor blood flow [5]: significantly inhibited tumor blood flow | inhibition of tumor blood flow ([6]; A2780 xenografts in mice): significantly inhibited tumor blood flow | potency of blood flow inhibition relative to CA4P ([6]; daily single agent for ten days, human tumor xenografts in nude mice (N87, A2780; FIG. 9)): 5-10 times

COc1ccc(/C=C\c2cc(OC)c(OC)c(OC)c2)cc1OP(=O)(O)O [CA4P, combretastatin A-4 phosphate]
decrease in lymphocytes [7, 11]: more than 20% | increase in neutrophils [7, 11]: more than 2 fold | total white blood cell count ([7]; 4 hours following treatment, CA4P 52 to 114 mg/m^2, nineteen patients, vs pretreatment): highly significant increase | time for white blood cell counts to return to normal levels ([7]; after treatment with CA4P): ≤ 24 h | log cell kill (LCK) ([8]; CA4P single agent, optimal dose 150 mg/kg/inj, iv, everyday x10 (Monday thru Friday), advanced (300 mg) tumors): 1.1 LCK | CA4P dose sufficient to enhance the antitumor activity of carboplatin ([8]; iv, q4dx3, doses without single agent activity, carboplatin at a range of dose levels (FIG. 7)): 12.5-25 mg/m^2 | single agent antitumor activity ([1]; CA4P administered Q4Dx3, separate experiment): no activity | maximum tolerated dose (MTD) as a single agent ([1]; CA4P single agent): > 250 mg/kg/inj | optimal CA4P dose required for therapeutic synergy ([1]; in combination with carboplatin (FIG. 3B)): < 90 mg/kg/inj | minimum effective dose required for synergistic enhancement [1]: 25 to 50 mg/kg | animals still alive at the conclusion of the experiment ([2]; first experiment (FIG. 14)): 30% | control of tumor growth ([2]; first experiment: CA4P 100 mg/kg, paclitaxel 9 mg/kg, carboplatin 30 mg/kg, once a week for 4 weeks (FIG. 13)): not significantly more effective than paclitaxel and carboplatin | log cell kill (LCK) ([3]; CA4P at 150 mg/kg, ip): 1.1 LCK | reduction of tumor blood flow [9]: 67% | reduction of tumor blood flow [10]: 87%

CCc1c2c(nc3ccc(OC(=O)N4CCC(N5CCCCC5)CC4)cc13)-c1cc3c(c(=O)n1C2)COC(=O)[C@]3(O)CC [CPT-11, CPT-11 (irinotecan), reference compound]
log cell kill (LCK) ([3]; CPT-11 at its MTD): 3.3 LCK

N.N.O=C([O-])C1(C(=O)[O-])CCC1.[Pt+2] [carboplatin, Carboplatin, reference compound]
complete response (disappearance of tumors) [1]: not observed | log cell kill (LCK) ([1]; carboplatin alone at MTD 90 mg/kg/inj, iv, Q4Dx3, large sc tumors (300 mg)): 1.4 LCK | tumor regression / shrinkage ([1]; carboplatin alone at MTD vs best CA4P + carboplatin combination (FIG. 3A)): no tumor regression | maximum tolerated dose (MTD) ([1]; carboplatin, iv, Q4Dx3): 90 mg/kg/inj

N.N.[Cl][Pt][Cl] [cisplatin]
shrinkage of tumors following treatment ([8]; combination vs single agent cisplatin (FIG. 1)): did not | maximum tolerated dose (MTD) ([8]; injected every 4 days for 3 doses (Q4Dx3)): 7.5 mg/kg | log cell kill (LCK) ([8]; single agent cisplatin at MTD 7.5 mg/kg, iv, Q4Dx3): 0.8 LCK
